{
  "source": "patent US12458614B2",
  "about": "“Therapeutic agents for improved mobility and cognitive function and for treating neurodegenerative diseases and lysosomal storage disorders” (priority 2017, dated 2025)",
  "key": {"[1]": {"system": "patients with amyotrophic lateral sclerosis (ALS)", "experiment": "Case studies, amyotrophic lateral sclerosis", "format": "in vivo, human", "excerpt": "The results were documented by video."}, "[2]": {"system": "patients with progressive supranuclear palsy", "experiment": "Case studies, progressive supranuclear palsy", "format": "in vivo, human"}, "[3]": {"system": "patients with cerebellar ataxia", "settings": "cited from earlier work"}, "[4]": {"system": "patient with progressive gait disorder", "experiment": "Case study Example 26, quantitative gait analysis", "format": "in vivo, human"}, "[5]": {"system": "Mucopolysaccharidosis Type VII (MPS VII) patient fibroblasts", "experiment": "Lysosomal volume via LysoTracker", "format": "cell-based, human", "settings": "1 mM, 6 days"}, "[6]": {"system": "patients with ataxia with oculomotor apraxia type 4", "experiment": "Case study, ataxia with oculomotor apraxia type 4", "format": "in vivo, human", "settings": "AOA4 youngest sibling", "excerpt": "In this case study, four patients (male siblings) suffered from, and were later diagnosed with, ataxia with oculomotor apraxia type 4. The older three siblings […], at the time of disease onset. […] The older siblings began treatment with acetyl-leucine […], respectively, and have been on the treatment for approximately four years. No long-term clinical data is available for these three patients.\nThe youngest sibling was […] at the time of onset. […] No long-term clinical data is available for the youngest sibling."}, "[7]": {"system": "patients with Niemann-Pick Type C (NPC)", "settings": "one-month study, 12 NPC patients (Bremova 2015); cited from earlier work"}, "[8]": {"system": "person with progressive postural imbalance", "experiment": "Case study Example 22, get up and go test and cognition", "format": "in vivo, human", "protocol": "Treatment with acetyl-DL-leucine (Tanganil®) was started because the patient was suffering from imbalance and gait disorder. They initiated a one-month course comprising nine 500 mg tablets taken three times a day (TID) with meals, i.e., a total daily dosage of 4.5 g.\nThe ability of the subject to move was measured in a home setting “get up and go test”. This test involved the subject rising unaided from their chair and walking the length of their living area to their kitchen. This was timed over seven consecutive days prior to treatment, and over the next seven consecutive days once treatment with Tanganil® had started.\nThe same subject then initiated another month of treatment, i.e. a further one-month course comprising nine 500 mg capsules taken TID with meals (total daily dosage of 4.5 g)."}, "[9]": {"system": "patients with multiple system atrophy Parkinson type (MSA-P)", "experiment": "Case studies, multiple system atrophy Parkinson type", "format": "in vivo, human"}, "[10]": {"settings": "ALS Patient 1, after a further 20 days"}, "[11]": {"settings": "ALS Patient 2, after approximately 2 months"}, "[12]": {"settings": "MSA-P Patient 2, after one month of treatment"}},
  "data": [
    {"smiles": "CC(=O)NC(CC(C)C)C(=O)O", "note": "(racemic) [acetyl-DL-leucine]", "values": [
      {"measurement": "Overall symptoms", "setting": "[1]; ALS Patient 1", "value": "improvement in symptoms"},
      {"measurement": "Speech after stopping treatment", "setting": "[1]; ALS Patient 1, about 7 days plus 1-2 additional weeks off treatment", "value": "deterioration of speech"},
      {"measurement": "Speech (patient report)", "setting": "[1]; ALS Patient 1, after 15 days, 3 then 5 gram per day", "value": "significant improvement of speech"},
      {"measurement": "Paresis of right foot-dorsiflexors / foot drop", "setting": "[1]; [10]", "value": "foot drop had improved dramatically"},
      {"measurement": "Sleep (patient report)", "setting": "[1]; [10]", "value": "improvement in sleep"},
      {"measurement": "Speech (patient report)", "setting": "[1]; [10]", "value": "further improvement of speech"},
      {"measurement": "Symptomatology after resuming treatment", "setting": "[1]; ALS Patient 1, second resumption", "value": "improved symptomatology, in particular speech"},
      {"measurement": "Motor function of the left hand", "setting": "[1]; [11]", "value": "progredient deterioration of the motor function of the left hand"},
      {"measurement": "Swallowing functions", "setting": "[1]; [11]", "value": "remained stable"},
      {"measurement": "Walking (patient report)", "setting": "[1]; [11]", "value": "discrete improvement of walking"},
      {"measurement": "Symptomatology (patient report)", "setting": "[1]; ALS Patient 3, after one month", "value": "did not report improvement of symptomatology"},
      {"measurement": "Symptomatology after suspension", "setting": "[1]; ALS Patient 4, 10 days after therapy was suspended", "value": "worsening of symptomatology"},
      {"measurement": "Symptomatology (patient report)", "setting": "[1]; ALS Patient 4, after about one month", "value": "subjective improvement of dysphagia and less hypersalivation"},
      {"measurement": "Symptoms after stopping medication", "setting": "[2]; PSP Patient 2, about two months later", "value": "no deterioration of symptoms after stopping medication"},
      {"measurement": "Symptoms after stopping medication", "setting": "[2]; PSP Patient 3, about two months later", "value": "no deterioration of symptoms after stopping medication"},
      {"measurement": "benefit in degenerative cerebellar ataxia", "setting": "[3]; case series (Pelz 2015)", "value": "did not find benefit"},
      {"measurement": "symptoms of cerebellar ataxia", "setting": "[3]; case series (Strupp 2013)", "value": "symptomatic improvement of cerebellar ataxia"},
      {"measurement": "temporal gait variability", "setting": "[3]; quantitative gait analysis (Schniepp 2015)", "value": "improved temporal gait variability"},
      {"measurement": "Gait (patient and spouse report)", "setting": "[4]; 3 gram per day for two weeks", "value": "considerable improvement of gait"},
      {"measurement": "Functioning and quality of living (spouse report)", "setting": "[4]; Day 42, 3 gram per day restarted", "value": "dramatic improvement"},
      {"measurement": "Self-chosen gait velocity", "setting": "[4]; Day 42, from 55 cm/sec", "value": 62, "unit": "cm/s"},
      {"measurement": "Maximal gait velocity", "setting": "[4]; Day 42, from 84 cm/sec", "value": 130, "unit": "cm/s"},
      {"measurement": "Symptoms after medication was stopped", "setting": "[4]; in vivo", "value": "worsening of symptoms"},
      {"measurement": "LysoTracker fluorescence vs untreated disease fibroblasts", "setting": "[5]", "value": "trend in reducing LysoTracker fluorescence toward control level"},
      {"measurement": "Fine motor skills and speech (reported by mother)", "setting": "[6]", "value": "improved fine motor skills and improved speech at each age compared to their older siblings"},
      {"measurement": "ataxia symptoms", "setting": "[7]", "value": "symptomatic improvement of ataxia"},
      {"measurement": "Cognitive function (noticed by family)", "setting": "[8]; after 2-3 weeks of treatment", "value": "significant improvement in their cognitive function, spatial awareness and general demeanor"},
      {"measurement": "Faster than pre-treatment, get up and go test", "setting": "[8]; on treatment, 4.5 g daily", "value": 25, "unit": "%"},
      {"measurement": "Average time, get up and go test", "setting": "[8]; once treatment had started, 4.5 g daily, 40±3 prior to treatment", "value": "30 ± 2", "unit": "s"},
      {"measurement": "Side effects", "setting": "[8]; over eighteen months, 4.5 g per day", "value": "no side effects"},
      {"measurement": "Improvements on second treatment", "setting": "[8]; second one-month course, 4.5 g daily", "value": "rapidly returned"},
      {"measurement": "Symptoms after stopping medication", "setting": "[9]; MSA-P Patient 1, 6 weeks later", "value": "did not report deterioration of symptoms"},
      {"measurement": "Gait, falls, hypokinetic rigid-syndrome (patient report)", "setting": "[9]; MSA-P Patient 1, after 3 weeks", "value": "no significant improvement of gait, reduction of falls or improved hypokinetic rigid-syndrome"},
      {"measurement": "Balance (clinical examination)", "setting": "[9]; [12]", "value": "improved balancing on an imaginary tightrope"},
      {"measurement": "Dizziness (patient report)", "setting": "[9]; [12]", "value": "subjective improvement of dizziness"},
      {"measurement": "Symptomatology (patient report)", "setting": "[9]; MSA-P Patient 2, after one month without medication", "value": "stable symptomatology"},
      {"measurement": "Symptomatology (patient report)", "setting": "[9]; MSA-P Patient 2, after two months without medication", "value": "worsening of general symptomatology"}
    ]}
  ]
}
